# Measurements taken from ChEMBL document CHEMBL4507294, “Data for DCP probe MSD-CYP11B2” (2021).
# Assays:
# [1] = biological target: 5-hydroxytryptamine receptor 6 (Homo sapiens, UniProt P50406); test: GPCRScan assay: inhibition of 5-HT6; parameters: radioligand conc. used [nm] 2.0 – 4.0, parental cells stable HEK
# [2] = biological target: Cytochrome P450 11B1, mitochondrial (Homo sapiens, UniProt P15538); test: Assay using V79 cell lines (CYP11B1); type: cell-based
# [3] = biological target: Delta-type opioid receptor (Homo sapiens) (UniProt P41143); conditions: Compound concentration 10.0 uM
# [4] = biological target: Histamine H4 receptor (Homo sapiens) (UniProt Q9H3N8); conditions: Compound concentration 10.0 uM
# [5] = biological target: Beta-1 adrenergic receptor (Homo sapiens, UniProt P08588); test: GPCRScan assay: inhibition of Beta1; parameters: radioligand conc. used [nm] 0.1 – 0.2, parental cells CHO Flp-In
# Rattus norvegicus = organism: Rattus norvegicus; test: Inhibition of Glutamate, NMDA, Phencyclidine at 10 µM in the Eurofins-Panlabs radioligand binding assay (Eurofins_assay_233000); type: protein-complex assay; conditions: Compound concentration 10.0 uM
# [6] = biological target: T1, 5-hydroxytryptamine receptor 2B (Homo sapiens, UniProt P41595); test: Inhibition of Serotonin (5-Hydroxytryptamine) 5-HT2B at compound concentration of 10.0 uM in the Eurofins-Panlabs radioligand binding assay (Eurofins_assay_271700); parameters: ligand concentration 1.2 nM, non-specific ligand with concentration 10 uM Serotonin (5-HT), incubation time 60 min, incubation temperature 37 C
# [7] = biological target: T2, 5-hydroxytryptamine receptor 3A (Homo sapiens) (UniProt P46098); test: Inhibition of Serotonin (5-Hydroxytryptamine) 5-HT3 at 10 µM in the Eurofins-Panlabs radioligand binding assay (Eurofins_assay_271910); parameters: ligand concentration 0.69 nM; conditions: Compound concentration 10.0 uM
# T2 sequence (whole entry): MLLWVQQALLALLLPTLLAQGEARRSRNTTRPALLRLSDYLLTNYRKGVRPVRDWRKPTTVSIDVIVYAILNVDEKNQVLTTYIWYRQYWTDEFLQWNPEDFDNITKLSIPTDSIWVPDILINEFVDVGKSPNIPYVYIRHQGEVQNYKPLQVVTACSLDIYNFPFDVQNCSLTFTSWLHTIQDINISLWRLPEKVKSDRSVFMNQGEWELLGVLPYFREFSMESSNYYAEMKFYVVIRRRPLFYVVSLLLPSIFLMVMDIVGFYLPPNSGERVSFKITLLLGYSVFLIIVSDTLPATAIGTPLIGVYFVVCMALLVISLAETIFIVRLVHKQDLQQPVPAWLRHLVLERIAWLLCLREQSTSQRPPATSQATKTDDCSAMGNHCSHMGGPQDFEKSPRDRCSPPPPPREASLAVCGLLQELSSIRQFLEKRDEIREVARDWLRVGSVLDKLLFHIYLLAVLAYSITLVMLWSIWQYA
# Homo sapiens = organism: Homo sapiens; test: Glutamate, Metabotropic, mGlu5 Eurofins-Panlabs radioligand binding assay; conditions: Compound concentration 10.0 uM
# [8] = biological target: Melanocyte-stimulating hormone receptor (Homo sapiens) (UniProt Q01726); test: Melanocortin MC1 Eurofins-Panlabs radioligand binding assay; conditions: Compound concentration 10.0 uM
# [9] = biological target: T1, 5-hydroxytryptamine receptor 2B; test: Panlabs assay (HTR2B); parameters: compound concentration 10 uM
# [10] = biological target: Histamine H3 receptor (Homo sapiens) (UniProt Q9Y5N1); conditions: Compound concentration 10.0 uM
# [11] = biological target: Adenosine receptor A1 (Homo sapiens) (UniProt P30542); conditions: Compound concentration 10.0 uM
# [12] = biological target: Cannabinoid receptor 1 (Homo sapiens) (UniProt P21554); conditions: Compound concentration 10.0 uM
# [13] = biological target: Glutamate NMDA receptor (Rattus norvegicus) (UniProt P35439+Q00959+Q00960+Q00961+Q62645+Q8VHN2+Q9R1M7); conditions: Compound concentration 10.0 uM
# [14] = biological target: T3, Muscarinic acetylcholine receptor M1 (Homo sapiens) (UniProt P11229); conditions: Compound concentration 10.0 uM
# T3 sequence (whole entry): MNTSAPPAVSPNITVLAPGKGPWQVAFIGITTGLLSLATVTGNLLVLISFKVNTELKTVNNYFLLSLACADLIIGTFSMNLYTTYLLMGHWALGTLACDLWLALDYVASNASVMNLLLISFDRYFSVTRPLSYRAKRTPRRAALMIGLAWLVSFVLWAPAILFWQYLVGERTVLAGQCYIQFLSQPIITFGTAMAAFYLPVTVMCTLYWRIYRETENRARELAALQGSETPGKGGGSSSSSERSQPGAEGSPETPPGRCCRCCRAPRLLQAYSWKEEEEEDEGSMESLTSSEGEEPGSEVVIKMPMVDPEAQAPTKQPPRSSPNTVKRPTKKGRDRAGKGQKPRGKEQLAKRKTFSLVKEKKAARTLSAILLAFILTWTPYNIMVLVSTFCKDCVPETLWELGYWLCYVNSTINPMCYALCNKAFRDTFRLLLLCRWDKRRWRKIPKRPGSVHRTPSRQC
# [15] = biological target: T4, Muscarinic acetylcholine receptor M2 (Homo sapiens) (UniProt P08172); conditions: Compound concentration 10.0 uM
# T4 sequence (whole entry): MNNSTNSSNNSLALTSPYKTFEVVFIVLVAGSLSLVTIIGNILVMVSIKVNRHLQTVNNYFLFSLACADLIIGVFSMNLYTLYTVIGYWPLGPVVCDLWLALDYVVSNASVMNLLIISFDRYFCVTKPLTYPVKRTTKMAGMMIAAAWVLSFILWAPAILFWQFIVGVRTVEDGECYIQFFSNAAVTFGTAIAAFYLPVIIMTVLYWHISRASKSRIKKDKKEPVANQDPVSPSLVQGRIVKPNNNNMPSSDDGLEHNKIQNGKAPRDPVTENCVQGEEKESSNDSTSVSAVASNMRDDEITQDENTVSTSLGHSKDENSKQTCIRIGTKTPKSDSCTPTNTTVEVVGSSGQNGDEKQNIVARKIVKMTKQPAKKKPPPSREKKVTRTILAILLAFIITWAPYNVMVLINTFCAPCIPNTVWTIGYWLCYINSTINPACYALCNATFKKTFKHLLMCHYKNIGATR
# [16] = biological target: Muscarinic acetylcholine receptor M3 (Homo sapiens) (UniProt P20309); conditions: Compound concentration 10.0 uM
# [17] = biological target: T1, 5-hydroxytryptamine receptor 2B
# [18] = biological target: GABA-A receptor; anion channel (Rattus norvegicus) (UniProt O09028+P15431+P18506+P18508+P19969+P20236+P23574+P23576+P28471+P28473+P30191+P62813+P63079+P63138+Q91ZM7+Q9ES14); conditions: Compound concentration 10.0 uM
# [19] = biological target: Glutamate receptor 2 (Homo sapiens) (UniProt P42262); conditions: Rattus norvegicus; Compound concentration 10.0 uM
# Sequence of Glutamate receptor 2 (Homo sapiens) (P42262 whole entry): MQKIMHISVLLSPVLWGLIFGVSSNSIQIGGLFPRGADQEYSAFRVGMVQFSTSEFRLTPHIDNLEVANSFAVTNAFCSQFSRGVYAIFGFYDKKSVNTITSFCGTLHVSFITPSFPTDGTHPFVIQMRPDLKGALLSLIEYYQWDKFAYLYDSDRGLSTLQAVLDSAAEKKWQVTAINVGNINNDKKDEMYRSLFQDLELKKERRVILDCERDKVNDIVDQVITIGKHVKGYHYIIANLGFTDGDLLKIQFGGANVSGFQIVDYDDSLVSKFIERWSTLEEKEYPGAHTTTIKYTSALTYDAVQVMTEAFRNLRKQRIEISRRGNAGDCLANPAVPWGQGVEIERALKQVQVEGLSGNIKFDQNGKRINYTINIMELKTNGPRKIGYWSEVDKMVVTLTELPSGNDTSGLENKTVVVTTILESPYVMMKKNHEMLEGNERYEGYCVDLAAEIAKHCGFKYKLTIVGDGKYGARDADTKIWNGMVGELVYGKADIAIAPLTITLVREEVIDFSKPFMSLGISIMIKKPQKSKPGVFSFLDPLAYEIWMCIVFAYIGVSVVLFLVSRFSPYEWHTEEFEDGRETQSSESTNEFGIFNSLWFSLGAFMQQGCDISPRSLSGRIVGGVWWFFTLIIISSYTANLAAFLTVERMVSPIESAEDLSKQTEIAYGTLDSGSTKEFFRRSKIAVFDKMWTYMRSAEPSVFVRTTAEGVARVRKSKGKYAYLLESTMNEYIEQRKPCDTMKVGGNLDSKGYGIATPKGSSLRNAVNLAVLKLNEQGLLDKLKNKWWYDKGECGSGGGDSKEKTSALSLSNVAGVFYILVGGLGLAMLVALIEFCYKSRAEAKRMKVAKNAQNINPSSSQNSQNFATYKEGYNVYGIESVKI
# T1 sequence (P41595 whole entry): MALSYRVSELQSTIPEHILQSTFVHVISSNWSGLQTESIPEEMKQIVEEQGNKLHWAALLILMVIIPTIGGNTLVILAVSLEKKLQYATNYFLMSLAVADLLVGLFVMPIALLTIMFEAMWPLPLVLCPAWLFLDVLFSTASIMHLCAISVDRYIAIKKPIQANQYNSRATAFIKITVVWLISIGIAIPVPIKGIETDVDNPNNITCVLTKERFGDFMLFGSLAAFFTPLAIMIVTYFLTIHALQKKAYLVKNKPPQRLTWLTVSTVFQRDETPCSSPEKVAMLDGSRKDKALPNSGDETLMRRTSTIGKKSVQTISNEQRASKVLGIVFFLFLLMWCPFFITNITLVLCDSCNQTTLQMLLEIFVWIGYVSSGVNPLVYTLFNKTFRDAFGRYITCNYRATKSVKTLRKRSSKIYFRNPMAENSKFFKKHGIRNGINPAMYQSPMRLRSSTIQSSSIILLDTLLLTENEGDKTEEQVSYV
# Sequence of Muscarinic acetylcholine receptor M3 (Homo sapiens) (P20309 whole entry, looked up): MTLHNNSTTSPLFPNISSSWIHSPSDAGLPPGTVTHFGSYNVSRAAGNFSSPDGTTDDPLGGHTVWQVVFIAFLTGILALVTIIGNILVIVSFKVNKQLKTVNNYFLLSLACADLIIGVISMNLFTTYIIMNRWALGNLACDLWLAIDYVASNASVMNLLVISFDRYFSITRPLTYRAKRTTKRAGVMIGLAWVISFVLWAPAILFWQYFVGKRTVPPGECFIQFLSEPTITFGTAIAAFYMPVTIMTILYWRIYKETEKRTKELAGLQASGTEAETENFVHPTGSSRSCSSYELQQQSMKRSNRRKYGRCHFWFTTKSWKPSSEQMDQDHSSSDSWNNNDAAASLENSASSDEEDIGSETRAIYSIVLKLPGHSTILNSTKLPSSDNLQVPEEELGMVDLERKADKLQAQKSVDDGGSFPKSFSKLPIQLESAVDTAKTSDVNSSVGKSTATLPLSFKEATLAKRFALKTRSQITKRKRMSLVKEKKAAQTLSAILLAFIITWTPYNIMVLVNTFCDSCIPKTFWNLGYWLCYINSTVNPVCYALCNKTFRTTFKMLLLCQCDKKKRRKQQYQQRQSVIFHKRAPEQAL
# Sequence of Cannabinoid receptor 1 (Homo sapiens) (P21554 whole entry): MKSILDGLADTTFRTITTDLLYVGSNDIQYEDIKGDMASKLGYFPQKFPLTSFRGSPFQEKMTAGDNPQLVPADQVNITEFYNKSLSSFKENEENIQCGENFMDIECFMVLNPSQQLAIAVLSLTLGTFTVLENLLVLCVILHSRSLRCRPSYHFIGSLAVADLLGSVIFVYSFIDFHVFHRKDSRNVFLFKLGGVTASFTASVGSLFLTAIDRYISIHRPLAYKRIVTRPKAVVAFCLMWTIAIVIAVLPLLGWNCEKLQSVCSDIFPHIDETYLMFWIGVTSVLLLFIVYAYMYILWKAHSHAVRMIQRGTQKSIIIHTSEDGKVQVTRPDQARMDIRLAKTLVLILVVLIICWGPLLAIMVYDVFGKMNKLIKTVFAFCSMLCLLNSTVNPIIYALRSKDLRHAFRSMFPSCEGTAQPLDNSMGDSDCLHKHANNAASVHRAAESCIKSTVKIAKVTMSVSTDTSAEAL
# Sequence of 5-hydroxytryptamine receptor 6 (P50406 whole entry): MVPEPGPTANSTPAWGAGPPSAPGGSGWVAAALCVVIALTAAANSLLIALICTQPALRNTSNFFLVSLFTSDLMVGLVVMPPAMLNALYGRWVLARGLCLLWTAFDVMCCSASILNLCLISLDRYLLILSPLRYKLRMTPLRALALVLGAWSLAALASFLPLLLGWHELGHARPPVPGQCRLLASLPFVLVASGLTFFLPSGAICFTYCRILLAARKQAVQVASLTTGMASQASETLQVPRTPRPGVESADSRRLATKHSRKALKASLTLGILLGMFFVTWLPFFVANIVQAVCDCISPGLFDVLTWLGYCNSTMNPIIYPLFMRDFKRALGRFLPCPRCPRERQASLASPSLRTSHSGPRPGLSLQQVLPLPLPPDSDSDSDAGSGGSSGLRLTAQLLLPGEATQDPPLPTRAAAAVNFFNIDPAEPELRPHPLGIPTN
# Sequence of Beta-1 adrenergic receptor (P08588 whole entry): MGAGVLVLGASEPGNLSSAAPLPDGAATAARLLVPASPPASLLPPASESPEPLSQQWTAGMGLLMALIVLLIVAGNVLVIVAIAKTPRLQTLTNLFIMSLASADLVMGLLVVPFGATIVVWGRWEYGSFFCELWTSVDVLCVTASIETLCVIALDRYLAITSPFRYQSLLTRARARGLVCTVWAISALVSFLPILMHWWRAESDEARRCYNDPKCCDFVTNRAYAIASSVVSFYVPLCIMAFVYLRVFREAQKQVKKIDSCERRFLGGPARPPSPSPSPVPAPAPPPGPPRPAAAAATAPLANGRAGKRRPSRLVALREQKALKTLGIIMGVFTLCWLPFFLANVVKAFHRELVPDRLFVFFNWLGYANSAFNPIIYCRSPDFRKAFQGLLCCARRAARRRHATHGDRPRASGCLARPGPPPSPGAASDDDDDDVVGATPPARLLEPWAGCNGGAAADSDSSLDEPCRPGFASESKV
# Sequence of Histamine H3 receptor (Homo sapiens) (Q9Y5N1 whole entry): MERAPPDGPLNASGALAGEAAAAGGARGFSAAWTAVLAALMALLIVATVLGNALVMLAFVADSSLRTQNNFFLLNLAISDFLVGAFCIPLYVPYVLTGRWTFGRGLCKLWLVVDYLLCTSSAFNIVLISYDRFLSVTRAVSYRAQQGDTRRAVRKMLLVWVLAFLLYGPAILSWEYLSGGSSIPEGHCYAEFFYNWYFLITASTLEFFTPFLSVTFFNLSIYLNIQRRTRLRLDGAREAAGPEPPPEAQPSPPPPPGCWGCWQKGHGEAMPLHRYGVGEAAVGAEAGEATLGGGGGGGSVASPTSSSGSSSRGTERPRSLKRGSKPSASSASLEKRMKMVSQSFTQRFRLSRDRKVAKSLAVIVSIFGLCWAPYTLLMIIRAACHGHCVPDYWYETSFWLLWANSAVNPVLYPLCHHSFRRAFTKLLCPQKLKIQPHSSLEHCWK
# Sequence of Adenosine receptor A1 (Homo sapiens) (P30542 whole entry): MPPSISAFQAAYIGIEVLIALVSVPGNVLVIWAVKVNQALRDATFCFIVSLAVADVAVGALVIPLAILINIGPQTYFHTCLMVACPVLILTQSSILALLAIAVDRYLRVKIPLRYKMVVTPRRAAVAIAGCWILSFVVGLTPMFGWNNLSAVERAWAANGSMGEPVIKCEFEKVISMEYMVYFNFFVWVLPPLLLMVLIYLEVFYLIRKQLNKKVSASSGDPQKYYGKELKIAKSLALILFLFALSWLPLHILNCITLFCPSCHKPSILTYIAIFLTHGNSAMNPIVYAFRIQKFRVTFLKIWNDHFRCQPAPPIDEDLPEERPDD
# Sequence of Cytochrome P450 11B1, mitochondrial (P15538 whole entry): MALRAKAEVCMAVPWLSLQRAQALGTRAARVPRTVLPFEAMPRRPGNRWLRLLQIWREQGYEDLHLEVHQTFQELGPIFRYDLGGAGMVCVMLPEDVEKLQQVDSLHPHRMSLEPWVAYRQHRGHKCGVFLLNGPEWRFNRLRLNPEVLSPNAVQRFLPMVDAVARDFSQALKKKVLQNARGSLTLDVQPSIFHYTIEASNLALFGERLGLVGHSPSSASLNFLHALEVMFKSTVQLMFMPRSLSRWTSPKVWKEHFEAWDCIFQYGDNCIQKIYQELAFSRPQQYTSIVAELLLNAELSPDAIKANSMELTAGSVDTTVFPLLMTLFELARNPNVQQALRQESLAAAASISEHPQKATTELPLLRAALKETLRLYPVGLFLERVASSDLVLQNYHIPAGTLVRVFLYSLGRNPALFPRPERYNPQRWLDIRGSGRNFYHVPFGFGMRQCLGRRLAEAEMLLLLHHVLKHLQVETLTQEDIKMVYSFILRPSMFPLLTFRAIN
# Sequence of Delta-type opioid receptor (Homo sapiens) (P41143 whole entry): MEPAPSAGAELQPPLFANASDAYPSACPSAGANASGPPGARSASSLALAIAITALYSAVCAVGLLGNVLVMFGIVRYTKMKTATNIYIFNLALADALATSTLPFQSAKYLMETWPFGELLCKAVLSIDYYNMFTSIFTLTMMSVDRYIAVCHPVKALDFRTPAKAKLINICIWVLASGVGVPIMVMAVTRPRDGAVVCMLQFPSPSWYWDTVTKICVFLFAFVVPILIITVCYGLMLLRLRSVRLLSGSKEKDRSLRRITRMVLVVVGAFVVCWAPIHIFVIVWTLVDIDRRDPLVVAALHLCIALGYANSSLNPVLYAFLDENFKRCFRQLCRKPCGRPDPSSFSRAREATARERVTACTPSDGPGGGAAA
structure (smiles),measurement,setting,value
FC(F)(F)c1ccc2c(c1)nc(-c1cccnc1)n2C1CC1 [MSD-CYP11B2-Negative-control],Ki,[1],3.06 µM
same,IC50,[2],> 10 µM (not active)
same,inhibition,[3],-9.33%
same,inhibition,[4],-9.43%
CC(C)(O)c1cncc(-c2nc3ccc(F)cc3n2C2CC2)c1 [MSD-CYP11B2],Ki,[5],2.37 µM
same,inhibition,Rattus norvegicus,3%
same,IC50,[6],5.33 µM
same,Ki,[6],3.39 µM
same,inhibition,[7],-4%
same,inhibition,Homo sapiens,25%
same,inhibition,[8],-1%
same,IC50,[9],5.33 µM
same,inhibition,[10],-4.55%
same,inhibition,[11],20%
same,inhibition,[12],7%
same,inhibition,[13],-1%
same,inhibition,[14],-4%
same,inhibition,[15],6%
same,inhibition,[16],2%
same,inhibition,[17]; Compound concentration 0.01 uM,-2%
same,inhibition,[17]; Compound concentration 0.1 uM,-5%
same,inhibition,[17]; Compound concentration 1.0 uM,17%
same,inhibition,[17]; Compound concentration 10.0 uM,65%
same,inhibition,[18],16%
same,inhibition,[19],22%
